# Tests used:
# LCMV-CL13 [1] = tested on: LCMV-CL13; parameters: species or system mice (C57BL/6); settings: mouse, in vivo
# LCMV-CL13 [2] = tested on: LCMV-CL13; parameters: species or system mice (C57BL/6); settings: mouse, in vivo; remark: listed apart in the source
# P14+ CD8 T cells = assay type: cell-based, mice
Structure (SMILES),number of virus-specific CD8+ T cells (LCMV-CL13 [1]),"INFγ, TNFα, and IL-2 production by CD8+ T cells stimulated with LCMV peptides GP276, GP33 and NP396 (LCMV-CL13 [2])",inhibition of TNF-α and IL-2 production (P14+ CD8 T cells),"production of IFN-γ, TNF-α and IL-2 (all three cytokines) (P14+ CD8 T cells)","effect on cytokine production (P14+ CD8 T cells; EP2/4 DKO P14+ CD8 T cells, 40 μM PGE2)"
CC(C)Oc1ccc2c(=O)c3cc(C(=O)O)ccc3oc2c1 [AH6809],increased,increased,,,
CCc1nc2c(C)nc(C)cc2n1-c1ccc(CCNC(=O)NS(=O)(=O)c2ccc(C)cc2)cc1 [CJ-23423],increased,increased,,,
"CCCCc1nn(-c2ccccc2C(F)(F)F)c(=O)n1Cc1ccc(-c2ccccc2S(=O)(=O)NC(=O)c2sccc2C)cc1 [L161,982]",increased,increased,,,
COc1ccc2cc(OCC3(C(=O)O)CN(C(=O)c4ccc(F)cc4)C3)ccc2c1 [PF-04418948],increased,increased,,,
CCCCC[C@H](O)/C=C/[C@H]1[C@H](O)CC(=O)[C@@H]1C/C=C\CCCC(=O)O [PGE2],,,75-80%,suppressed,very little effect

# Source: patent US20150004175A1, “Compositions and Methods for Reducing CTL Exhaustion” (priority 2011, published 2015)
